The record followed here is US12673975B2, “Cyclic peptide, cell scaffold material, cell separating material, and medium” (FUJIFILM Corporation, priority 2019, dated 2026).

A short description of data set [1]: Evaluation of molecule stability (alkali treatment, residual rate by LC/MS). It counts as physicochemical. The note with it: 500 μM peptide aqueous solution plus equivalent of 1 M sodium hydroxide, 15° C., 3 hours, LC/MS peak area. The method in brief: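 500 μM aqueous cyclic peptide mixed with an equal volume of 1 M NaOH and held 3 h at 15 °C. Residual rate is total LC/MS peak area after treatment relative to untreated (100%), using a C18 column, pH 3 ammonium formate/acetonitrile gradient, 45 °C, ESI±.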

The next data set deals with human integrin αvβ5 (Homo sapiens, UniProt P06756+P18084). Kind of data set: Evaluation of integrin binding property (surface plasmon resonance, Biacore 3000, immobilized cyclic peptide). The note with it: SPR, 25° C., HEPES buffer with 5 mM magnesium chloride, integrin 30-1,000 nM; read-out: Performance evaluation: Binding activity (dissociation constant between the cyclic peptide and human integrin αvβ5). The method in brief: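 SPR with cyclic peptide amine-coupled via EDC/NHS to a CM5 chip, blank channel as reference. Integrin αvβ5 at 30, 100, 300 and 1,000 nM injected 10 min at 25 °C in HEPES buffer pH 7.4 with 5 mM MgCl2, 30 min buffer flow, EDTA regeneration; Kd from reference-subtracted signals, graded by category.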
On the technique in general: SPR reads the build-up and loss of mass on a sensor chip optically.

Starred links: 1 amine or outer side, 2 acyl side, 3 side chain; linkers in the order of their positions; H or OH if unused. Positions of bridges follow the written chain, without caps; N, C: chain ends. Non-standard residues stand in square brackets, D forms with d. Residues, ends and D or L forms follow the SMILES beside them. hCys = N[C@@H](CCS)C(=O)O; Dab = NCC[C@H](N)C(=O)O; X2 = O=C(C[*:1])[*:2]

Sequence of human integrin αvβ5 (P06756 31-1048): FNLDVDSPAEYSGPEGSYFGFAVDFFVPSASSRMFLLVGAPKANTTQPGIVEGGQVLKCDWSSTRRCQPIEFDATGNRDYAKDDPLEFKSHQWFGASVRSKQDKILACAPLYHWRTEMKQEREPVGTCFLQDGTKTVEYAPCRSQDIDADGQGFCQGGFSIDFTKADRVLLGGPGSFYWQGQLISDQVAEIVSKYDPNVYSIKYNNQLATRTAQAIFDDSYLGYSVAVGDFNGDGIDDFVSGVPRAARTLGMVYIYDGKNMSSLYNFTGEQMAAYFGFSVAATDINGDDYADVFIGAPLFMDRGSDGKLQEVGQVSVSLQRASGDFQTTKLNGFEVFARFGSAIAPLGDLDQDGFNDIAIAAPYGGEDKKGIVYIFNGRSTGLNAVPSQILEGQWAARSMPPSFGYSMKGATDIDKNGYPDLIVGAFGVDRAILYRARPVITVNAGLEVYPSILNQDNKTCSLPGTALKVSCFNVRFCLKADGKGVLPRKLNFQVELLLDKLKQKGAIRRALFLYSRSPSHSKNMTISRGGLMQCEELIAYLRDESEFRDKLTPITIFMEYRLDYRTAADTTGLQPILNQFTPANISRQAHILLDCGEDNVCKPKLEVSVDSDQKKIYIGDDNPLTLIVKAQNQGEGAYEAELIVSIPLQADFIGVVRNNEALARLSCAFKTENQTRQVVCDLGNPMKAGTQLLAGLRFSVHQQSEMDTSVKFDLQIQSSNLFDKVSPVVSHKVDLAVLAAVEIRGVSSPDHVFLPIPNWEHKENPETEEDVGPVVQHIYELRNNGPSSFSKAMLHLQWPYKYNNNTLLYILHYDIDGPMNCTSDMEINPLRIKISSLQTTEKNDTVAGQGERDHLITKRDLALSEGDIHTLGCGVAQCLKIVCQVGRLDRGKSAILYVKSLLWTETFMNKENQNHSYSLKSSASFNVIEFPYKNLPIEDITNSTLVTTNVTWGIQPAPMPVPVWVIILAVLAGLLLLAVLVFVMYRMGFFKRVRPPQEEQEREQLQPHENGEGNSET
Sequence of human integrin αvβ5 (P18084 24-799): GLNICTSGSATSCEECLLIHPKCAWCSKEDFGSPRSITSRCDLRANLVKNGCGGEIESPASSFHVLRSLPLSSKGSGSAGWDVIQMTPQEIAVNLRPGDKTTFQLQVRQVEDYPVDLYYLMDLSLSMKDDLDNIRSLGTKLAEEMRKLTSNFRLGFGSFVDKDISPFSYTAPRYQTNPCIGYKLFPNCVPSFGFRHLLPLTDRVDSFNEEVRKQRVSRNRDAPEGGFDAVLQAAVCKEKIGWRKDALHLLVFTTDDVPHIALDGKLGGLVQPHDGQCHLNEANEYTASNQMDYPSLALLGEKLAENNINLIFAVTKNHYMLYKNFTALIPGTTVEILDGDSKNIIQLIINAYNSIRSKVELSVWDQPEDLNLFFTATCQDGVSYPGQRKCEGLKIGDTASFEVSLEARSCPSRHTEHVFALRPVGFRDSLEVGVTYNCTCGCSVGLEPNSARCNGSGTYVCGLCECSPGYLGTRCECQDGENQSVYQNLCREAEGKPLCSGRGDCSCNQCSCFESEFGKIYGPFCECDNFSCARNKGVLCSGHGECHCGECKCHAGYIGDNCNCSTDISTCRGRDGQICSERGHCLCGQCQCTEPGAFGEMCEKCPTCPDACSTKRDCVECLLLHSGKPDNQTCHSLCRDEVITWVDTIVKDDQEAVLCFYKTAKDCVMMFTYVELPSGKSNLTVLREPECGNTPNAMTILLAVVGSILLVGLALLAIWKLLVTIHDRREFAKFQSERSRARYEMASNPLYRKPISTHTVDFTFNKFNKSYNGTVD

As to `CC[C@H](C)[C@@H]1NC(=O)[C@@H](NC(=O)CNC(=O)[C@H](CCCCN)NC(=O)[C@H](CCCCN)NC(=O)[C@@H](N)CCCCN)CCSCC(=O)NCC[C@@H](C(=O)N[C@@H](C)C(=O)O)NC(=O)[C@H](Cc2ccccc2)NC(=O)[C@H]([C@@H](C)O)NC(=O)[C@H](CC(=O)O)NC(=O)CNC(=O)[C@H](CCCNC(=N)N)NC(=O)[C@@H]2CCCN2C1=O` [Cyclic peptide 58, KKKG-(Hcy)-IPRGDTF(Dab(acetyl))A] (H-KKKG[hCys]IPRGDTF[Dab]A-OH; linker 5-13 via X2), the “Performance evaluation: Stability (residual rate of cyclic peptide after alkali treatment)” value in data set [1] is reported as “A (The residual rate of the cyclic peptide is 70% or more.)”. In addition, the Kd at human integrin αvβ5 is under 50 nM.

For the compound `CC[C@H](C)[C@@H]1NC(=O)[C@@H](NC(=O)CNC(=O)[C@H](CCCCN)NC(=O)[C@H](CCCCN)NC(=O)[C@@H](N)CCCCN)CCSCC(=O)NCC[C@@H](C(=O)O)NC(=O)[C@H](CCCNC(=N)N)NC(=O)[C@H](Cc2ccccc2)NC(=O)[C@H]([C@@H](C)O)NC(=O)[C@H](CC(=O)O)NC(=O)CNC(=O)[C@H](CCCNC(=N)N)NC(=O)[C@@H]2CCCN2C1=O` [Cyclic peptide 59, KKKG-(Hcy)-IPRGDTFR(Dab(acetyl))] (H-KKKG[hCys]IPRGDTFR[Dab]-OH; linker 5-14 via X2), in data set [1], the “Performance evaluation: Stability (residual rate of cyclic peptide after alkali treatment)” value was “A (The residual rate of the cyclic peptide is 70% or more.)”. In addition, the Kd on human integrin αvβ5 was under 50 nM.

With `CC[C@H](C)[C@@H]1NC(=O)[C@@H](NC(=O)[C@H](CCCCN)NC(=O)[C@H](CCCCN)NC(=O)[C@@H](N)CCCCN)CCSCC(=O)NCC[C@@H](C(=O)N[C@@H](C)C(=O)O)NC(=O)[C@H](Cc2ccccc2)NC(=O)[C@H]([C@@H](C)O)NC(=O)[C@H](CC(=O)O)NC(=O)CNC(=O)[C@H](CCCNC(=N)N)NC(=O)[C@@H]2CCCN2C1=O` [Cyclic peptide 60, KKK-(Hcy)-IPRGDTF(Dab(acetyl))A] (H-KKK[hCys]IPRGDTF[Dab]A-OH; linker 4-12 via X2), the “Performance evaluation: Stability (residual rate of cyclic peptide after alkali treatment)” value in data set [1] is reported as “A (The residual rate of the cyclic peptide is 70% or more.)”. On human integrin αvβ5, the Kd is under 50 nM.

For the compound `CC[C@H](C)[C@@H]1NC(=O)[C@@H](NC(=O)[C@H](CCCCN)NC(=O)[C@H](CCCCN)NC(=O)[C@@H](N)CCCCN)CCSCC(=O)NCC[C@@H](C(=O)O)NC(=O)[C@H](CCCNC(=N)N)NC(=O)[C@H](Cc2ccccc2)NC(=O)[C@H]([C@@H](C)O)NC(=O)[C@H](CC(=O)O)NC(=O)CNC(=O)[C@H](CCCNC(=N)N)NC(=O)[C@@H]2CCCN2C1=O` [Cyclic peptide 61, KKK-(Hcy)-IPRGDTFR(Dab(acetyl))] (H-KKK[hCys]IPRGDTFR[Dab]-OH; linker 4-13 via X2), the “Performance evaluation: Stability (residual rate of cyclic peptide after alkali treatment)” value in data set [1] is on record as “A (The residual rate of the cyclic peptide is 70% or more.)”. For the same compound, the Kd at human integrin αvβ5 is under 50 nM.

With `CC[C@H](C)[C@@H]1NC(=O)[C@@H](NC(=O)[C@H](CCCCN)NC(=O)[C@H](CCCCN)NC(=O)[C@@H](N)CCCCN)CCSCC(=O)NCC[C@@H](C(=O)O)NC(=O)[C@H](C)NC(=O)[C@H](Cc2ccccc2)NC(=O)[C@H]([C@@H](C)O)NC(=O)[C@H](CC(=O)O)NC(=O)CNC(=O)[C@H](CCCNC(=N)N)NC(=O)[C@@H]2CCCN2C1=O` [Cyclic peptide 62, KKK-(Hcy)-IPRGDTFA(Dab(acetyl))] (H-KKK[hCys]IPRGDTFA[Dab]-OH; linker 4-13 via X2), the “Performance evaluation: Stability (residual rate of cyclic peptide after alkali treatment)” value in data set [1] is on record as “A (The residual rate of the cyclic peptide is 70% or more.)”. In addition, the Kd on human integrin αvβ5 is under 50 nM.

`CC[C@H](C)[C@@H]1NC(=O)[C@@H](NC(=O)[C@H](CCCCN)NC(=O)[C@H](CCCCN)NC(=O)[C@@H](N)CCCCN)CCSCC(=O)NCC[C@@H](C(=O)O)NC(=O)[C@H](Cc2ccccc2)NC(=O)[C@H]([C@@H](C)O)NC(=O)[C@H](CC(=O)O)NC(=O)CNC(=O)[C@H](CCCNC(=N)N)NC(=O)[C@@H]2CCCN2C1=O` [Cyclic peptide 63, KKK-(Hcy)-IPRGDTF(Dab(acetyl))] (H-KKK[hCys]IPRGDTF[Dab]-OH; linker 4-12 via X2): in data set [1], the “Performance evaluation: Stability (residual rate of cyclic peptide after alkali treatment)” value is given as “A (The residual rate of the cyclic peptide is 70% or more.)”. Further, on human integrin αvβ5, the Kd was under 50 nM.
